Reference: US12076307B2, “Compositions for prevention or treatment of acute radiation syndrome and other radiation exposure” (priority 2017, dated 2024)
Where two headings read alike, the source gives them in different places.

Key:
[1] = test system: BALB/c mice, 6.11 Gy γ-radiation TBI; assay: LD70/30 (6.11 Gy) ARS model: survival, life span, body weight, EC-18 10/50/250 mg/kg; format: in vivo, mouse; settings: for improvement of survival vs control group / ≥10% Body Weight Loss, % / ≥20% Body Weight Loss, % / Average life span / Median survival / No. of mice that survived/total / Survivability / Survival: 6.11 Gy; for No. of mice that survived/total / Survivability / Survival: 30 days
Protocol: For the experiments to determine survival rate following LD70/30 dose 6.11 Gy of γ-irradiation (TBI, ^60Co, 0.833Gy min-1), mice were grouped 20 (10 males and 10 females) per treatment cohorts; γ-radiation only cohort (positive control), γ-radiation with EC-18 10 mg/kg cohort, γ-radiation with EC-18 50 mg/kg cohort, and γ-radiation with EC-18 250 mg/kg cohort. EC-18 (Enzychem Lifesciences, Jaecheon, Republic of Korea) was suspended in PBS and orally administrated once a day, starting 1 day after irradiation. The positive control group was administrated PBS. The survival and body weight of the animals were recorded daily for 30 days.
All data are presented as the mean t standard deviation (SD). A paired Log rank (Mantel-Cox) test of survival curve was applied to estimate the significance on survival rate and to compare the duration of neutropenia between control and EC-18-treated cohorts. Average life span was calculated as the sum of the life span for all mice/total number of mice. For comparison of the statistical differences of more than two groups, one-way ANOVA test was used. All other statistical analyses were performed using a Student's paired t test and p values<0.05 were considered statistically significant.
The purpose of this study was to investigate the dose-effect of EC-18 on increasing the survival in mice after exposure to γ-radiation to the entire body. Eleven-week-old male and female BALB/c mice (10 females and 10 males; 20 animals per study group) were tested for the LD70/30 study. This study is consisted of 4 experimental groups; γ-radiation only group, and γ-radiation with EC-18 treatment groups at 10, 50, or 250 mg/kg.

[2] = test system: BALB/c mice, 6.11 Gy γ-radiation TBI; assay: Hematopoietic ARS (H-ARS) CBC time course, 6.11 Gy; format: in vivo, mouse
Protocol: For the time course analysis of hematopoietic ARS (H-ARS), female mice were grouped 5 per treatment cohorts; γ-radiation only cohort (positive control) and γ-radiation with EC-18 250 mg/kg cohort. For the analysis of dose effect of EC-18 administration on H-ARS, mice were grouped 8 (5 males and 3 females) per treatment cohorts; γ-radiation only cohort (positive control), γ-radiation with EC-18 50 mg/kg cohort, γ-radiation with EC-18 100 mg/kg cohort, γ-radiation with EC-18 250 mg/kg cohort and γ-radiation with EC-18 100 mg/kg cohort. The whole blood was collected from the orbital sinuses using EDTA-free capillary tubes (Kimble Chase Life Science and Research Products LLC, FL, USA) and collection tubes containing K3E-K3EDTA (Greiner Bio-One International, Kremsmunster, Austria).
The therapeutic effect of EC-18 administration on H-ARS was then evaluated. […] Groups of BALB/c mice (n=5, female for FIG. 32A through FIG. 32E and n=8, 5 male, 3 female for FIG. 32F through FIG. 32J) were exposed to 6.11Gy of γ-radiation and various doses of EC-18 were orally administered once daily to day 15, or remained untreated. FIGS. 32A through 32E show the time course of the white blood cell count (WBC; FIG. 32A), absolute Neutrophil count (ANC; FIG. 32B), absolute Lymphocyte count (ALC; FIG. 32C), platelet count (PLT; FIG. 32D) and red blood cell count (RBC; FIG. 32E) over 15 days, respectively. FIG. 32F through FIG. 32J show the dose effect of EC-18 administration on WBC (FIG. 32F), ANC (FIG. 32G), ALC (FIG. 32H), PLT (FIG. 32I) and BRC (FIG. 32J) on day 15, respectively. ns; not significant,* p<0.05, **p<0.01, *** p<0.005.

ICR mice = assay: CNS function in mice (Irwin test); format: in vivo, mouse; settings: single oral doses up to 2000 mg/kg; 4 hrs
[3] = Plasma protein binding by rapid equilibrium dialysis, human
Protocol: The plasma protein binding ability of EC-18 was tested by rapid equilibrium dialysis (RED). The chamber separated by a dialysis tubing membrane (cut-off: 8 kDa) was filled on one side with rat or human plasma mixed with phosphate buffer and on the other side with rat or human plasma mixed with the test or standard reference material (test concentration: 1 μM).

CYP1A2 = format: in vitro ADME, human; settings: for Enzyme Activity CYP1A2: n=3
OAT1 = biological target: T1, OAT1 (Homo sapiens, UniProt Q4U2R8); assay: Drug transporter inhibition, OAT1; format: in vitro ADME; settings: 100 nM [3H] para-aminohippuric acid; transfected HEK-293 cells
T1 construct: expressed in transfected cells; host or cells: HEK-293
Protocol: (§1) This study examined the potential of EC-18 to interact with the transporter proteins that have been known to be involved in the absorption of commercially available drugs. EC-18 was pre-incubated with HEK-293 cells and LLC-PK1 cells that were transfected with the genes of most drug transporters as follows: OATP1B1, OATP1B3, OAT1, OAT3 and OCT2, and BCRP and P-gp, respectively.

BCRP = biological target: T2, BCRP (Homo sapiens, UniProt Q9UNQ0); assay: Drug transporter inhibition, BCRP; format: in vitro ADME; settings: 100 nM [3H] estrone-3-sulfate; transfected LLC-PK1 cells
T2 construct: expressed in transfected cells; host or cells: LLC-PK1
Protocol: as §1

[4] = EC-18 10 mg/kg oral daily from day 1, 10 mg/kg
[5] = EC-18 50 mg/kg oral daily from day 1, 50 mg/kg
[6] = EC-18 250 mg/kg oral daily from day 1, 250 mg/kg
[7] = EC-18 250 mg/kg daily, n=5 female

T2 sequence (Q9UNQ0 whole entry, species assumed): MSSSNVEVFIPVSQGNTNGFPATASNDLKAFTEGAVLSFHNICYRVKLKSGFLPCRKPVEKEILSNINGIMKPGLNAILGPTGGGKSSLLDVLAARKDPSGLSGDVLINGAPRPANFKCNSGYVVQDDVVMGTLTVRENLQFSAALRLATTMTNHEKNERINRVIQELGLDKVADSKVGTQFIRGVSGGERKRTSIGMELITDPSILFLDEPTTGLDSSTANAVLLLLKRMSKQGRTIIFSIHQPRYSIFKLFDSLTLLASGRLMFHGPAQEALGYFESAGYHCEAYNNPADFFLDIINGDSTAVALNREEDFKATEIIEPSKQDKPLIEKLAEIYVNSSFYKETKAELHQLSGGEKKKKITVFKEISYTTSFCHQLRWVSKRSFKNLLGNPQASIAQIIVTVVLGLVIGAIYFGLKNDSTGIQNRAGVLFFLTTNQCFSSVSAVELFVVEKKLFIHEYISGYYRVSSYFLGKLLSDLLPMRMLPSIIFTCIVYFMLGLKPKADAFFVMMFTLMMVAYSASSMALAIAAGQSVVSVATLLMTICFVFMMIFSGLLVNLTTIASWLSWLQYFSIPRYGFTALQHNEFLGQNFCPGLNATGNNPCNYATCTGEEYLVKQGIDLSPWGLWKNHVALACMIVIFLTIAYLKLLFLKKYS
T1 sequence (Q4U2R8 whole entry, species assumed): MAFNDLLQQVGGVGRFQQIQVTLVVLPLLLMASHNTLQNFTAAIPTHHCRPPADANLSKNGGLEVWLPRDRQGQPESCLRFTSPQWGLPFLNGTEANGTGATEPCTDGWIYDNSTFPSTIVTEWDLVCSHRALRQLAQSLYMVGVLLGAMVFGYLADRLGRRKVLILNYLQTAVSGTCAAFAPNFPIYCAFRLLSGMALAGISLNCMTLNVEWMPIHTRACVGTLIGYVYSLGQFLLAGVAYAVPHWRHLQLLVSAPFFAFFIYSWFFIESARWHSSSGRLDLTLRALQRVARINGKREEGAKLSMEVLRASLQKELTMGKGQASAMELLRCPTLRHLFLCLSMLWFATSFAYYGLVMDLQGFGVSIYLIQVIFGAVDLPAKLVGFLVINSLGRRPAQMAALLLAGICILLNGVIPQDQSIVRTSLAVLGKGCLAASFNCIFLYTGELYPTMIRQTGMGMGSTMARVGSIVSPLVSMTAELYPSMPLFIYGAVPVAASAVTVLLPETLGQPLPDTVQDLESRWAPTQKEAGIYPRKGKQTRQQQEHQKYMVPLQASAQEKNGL

CCCCC/C=C\C/C=C\CCCCCCCC(=O)OC(COC(C)=O)COC(=O)CCCCCCCCCCCCCCC (centres unmarked) [EC-18, 1-palmitoyl-2-linoleoyl-3-acetylglycerol]
radiation-induced weight loss vs positive control cohort ([1]; 250 mg/kg, from the 18th day after irradiation to the end): significantly reduced | improvement of survival vs control group ([1]; 50 mg/kg daily): 2 fold | improvement of survival vs control group ([1]; 250 mg/kg daily): 4 fold | ≥10% Body Weight Loss, % ([1]; EC-18 10 mg/kg): 85% | ≥20% Body Weight Loss, % ([1]; EC-18 10 mg/kg): 70% | Average life span [1, 4]: 22.3 days | Median survival [1, 4]: 17 days | No. of mice that survived/total [1, 4]: 4/20 | Survivability / Survival [1, 4]: 40% | ≥10% Body Weight Loss, % ([1]; EC-18 50 mg/kg): 55% | ≥20% Body Weight Loss, % ([1]; EC-18 50 mg/kg): 35% | Average life span [1, 5]: 19.3 days | Median survival [1, 5]: 20 days | No. of mice that survived/total [1, 5]: 8/20 | Survivability / Survival [1, 5]: 20% | ≥10% Body Weight Loss, % ([1]; EC-18 250 mg/kg): 15% | ≥20% Body Weight Loss, % ([1]; EC-18 250 mg/kg): 15% | Average life span [1, 6]: 17.9 days | Median survival [1, 6]: 30 days | No. of mice that survived/total [1, 6]: 16/20 | severe weight loss ([1]; two higher doses (50 and 250 mg/kg)): significantly prevented severe weight loss | duration of severe neutropenia [2, 7]: 7.2 ± 1.79 days | mean first day of neutropenia (ANC<500 cells/μL) [2, 7]: 2.2 ± 1.09 days | mean nadir of ANC [2, 7]: 20.0±10.00 cells/μL | reduction of PLT and RBC induced by a single TBI ([2]; oral once daily to day 15): attenuated | γ-radiation-induced depletion of WBC, ANC and ALC ([2]; oral once daily to day 15): significantly attenuated | CNS function (Irwin test) (ICR mice): did not affect the CNS function | Plasma Protein Binding Rate ([3]; Humans, 1 μM, 4 hrs RED, n=3): >99% | fraction unbound at 4 hrs, 1 μM ([3]; human, plasma): < 0.01 | Enzyme Activity CYP1A2 (CYP1A2; 1 μM): 0.33 ± 0.04 pmol/106 Cells/Min | Enzyme Activity CYP1A2 (CYP1A2; 10 μM): 0.38 ± 0.06 pmol/106 Cells/Min | Enzyme Activity CYP1A2 (CYP1A2; 100 μM): 0.33 ± 0.04 pmol/106 Cells/Min | potential to induce CYP1A2 (CYP1A2; up to 100 μM): no potential to induce | IC50 (OAT1): > 32 µM | IC50 (BCRP): > 32 µM
